Data published in patent US11191765B2, “Heterocyclic compounds for the inhibition of PASK” (BioEnergenix LLC, priority 2012, dated 2021).

Target: PASK (Invitrogen) (Homo sapiens (Human), UniProt Q96RG2)
Test: PAS Kinase FRET Assay
Assay type: biochemical
Settings: TR-FRET (665 nm/615 nm), Ulight-peptide substrate, 2 hours at 25° C.; read-out: IC50 Kinase Domain
Text: The aim of the FRET assay is to determine the inhibition potential of test compounds on targeted kinase. This assay platform provides a homogenous screening method for measuring kinase activity by quantitating the amount of phospho-substrate in solution following a kinase reaction.
In the presence of kinase and ATP, the Ulight-peptide is phosphorylated and captured by an anti-phospho-substrate antibody, which brings the Eu chelate donor and Ulight acceptor dyes into close proximity. Upon excitation at 340 nm, the Eu chelate transfers its energy to the Ulight dye, resulting in a fluorescent light emission at 665 nm.
Titration of kinase at 1 mM ATP was achieved via the following protocol. After making serial three-fold dilutions of PASK (Invitrogen) in reaction buffer across the plate; 5 μl of kinase dilution and 5 μl substrate/ATP mix were added to the wells of the white Optiplate-384 (PerkinElmer). The contents of the plate were and incubated at RT for 1 h. The reaction was stopped by adding 5 μl of stop solution to each test well followed by mixing and incubation at RT for 10 minutes. 5 μl of detection mix (detection antibody diluted in detection buffer) was added; the contents of the plate were mixed and then incubated in the dark for 1 hour at RT. The signal was recorded at TR-FRET mode (665 nm/615 nm). The results were graphed to calculate the EC50.
Titration of ATP at the EC50 concentration of kinase to determine ATP Km,app. was performed using the following method. After making serial dilutions of ATP (Invitrogen), 5 μl of ATP dilution and 5 μl substrate/kinase mix were added to the wells of the white Optiplate-384 (PerkinElmer). The contents of the plate were and incubated at RT for 1 h. The reaction was stopped by adding 5 μl of stop solution to each test well followed by mixing and incubation at RT for 10 minutes. 5 μl of detection mix (detection antibody diluted in detection buffer) was added; the contents of the plate were mixed and then incubated in the dark for 1 hour at RT. The signal was recorded at TR-FRET mode (665 nm/615 nm). The results were graphed to calculate the EC50 as the ATP Km,app.
Compound screening was done via the following method. 10 mM stock solution of test compound in DMSO was prepared by dissolving test compound in DMSO at RT for 1 hour, and then sonicating at 100% output for 8 minutes. If compound is not soluble under this condition, it was diluted to 3 mM. Kinase reaction buffer was prepared containing 10 mM MgCl2, 50 mM HEPES, 1 mM EGTA, 0.01% TWEEN-20, 2 mM DTT. Serial dilutions of the test compounds were prepared at 4×final assay concentrations using Freedom EVO200® dispensing system as follows: 12×10^−5 M, 4×10^−5 M, 1.33×10^−5 M, 4.44×10^−6 M, 1.48×10^−6 M, 4.92×10^−7 M, 1.65×10^−7 M, 5.48×10^−7 M, 1.82×10^−8 M, 6.09×10^−9, 2.03×10^−9 M. Test compounds (2.5 μl at 4×the final assay concentration) was added to wells using Freedom EVO200® dispensing system. As a positive control, 2.5 μl of positive compound was added to assay wells, and 2.5 μl of DMSO to assay wells as vehicle control. Kinase solution was prepared in reaction buffer at 2×final assay concentration. Kinase solution (5 μl) was added to each well of the assay plate. The substrate and ATP solution was prepared in kinase reaction buffer at 4×final assay concentration. The kinase reaction was started by adding 2.5 μl of substrate+ATP mix solution to each well of the assay plate. The plate is mixed on a plate shaker; then covered and allowed to react for 2 hours in the dark at 25° C. without shaking. The reaction was stopped by adding 5 μl of stop solution to each test well followed by mixing and incubation at RT for 10 minutes in the dark. 5 μl of detection mix (detection antibody diluted in detection buffer) was added; the contents of the plate were mixed and then incubated in the dark for 1 hour at RT. The signal was recorded at TR-FRET mode (665 nm/615 nm).

Chain of PASK (Invitrogen) (Q96RG2 999-1251): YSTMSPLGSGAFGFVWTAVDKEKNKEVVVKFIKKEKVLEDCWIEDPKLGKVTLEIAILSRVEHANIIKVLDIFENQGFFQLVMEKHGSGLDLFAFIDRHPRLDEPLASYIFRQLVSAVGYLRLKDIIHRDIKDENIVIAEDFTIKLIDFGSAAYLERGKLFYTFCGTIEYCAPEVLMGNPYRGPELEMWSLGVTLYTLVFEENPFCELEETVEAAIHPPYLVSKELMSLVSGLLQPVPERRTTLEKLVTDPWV

IC50 [µM]	SMILES
≤ 10	O=c1cc(-c2ccc3[nH]ncc3c2)[nH]c2nc(-c3ccc(Cl)cc3)nn12 [Example 44, 2-(4-Chlorophenyl)-5-(1H-indazol-5-yl)-[1,2,4]triazolo[1,5-a]pyrimidin-7(4H)-one]
≤ 10	Cc1nc2[nH]c(-c3ccc4[nH]nnc4c3)cc(=O)n2n1 [Example 43, 5-(1H-Benzo[d][1,2,3]triazol-5-yl)-2-methyl-[1,2,4]triazolo[1,5-a]pyrimidin-7(4H)-one]
≤ 10	O=c1cc(-c2ccc3c(c2)OCCO3)[nH]c2ncnn12 [Example 17, 5-(2,3-Dihydrobenzo[b][1,4]dioxin-6-yl)-[1,2,4]triazolo[1,5-a]pyrimidin-7(4H)-one]
≤ 10	O=c1cc(-c2ccc3[nH]nnc3c2)[nH]c2nc(-c3ccc(F)cc3)nn12 [Example 40, 5-(1H-Benzo[d][1,2,3]triazol-5-yl)-2-(4-fluorophenyl)-[1,2,4]triazolo[1,5-a]pyrimidin-7(4H)-one]
≤ 10	COc1ccc(-c2cc(=O)n3ncnc3[nH]2)cc1 [Example 26, 5-(4-Methoxyphenyl)-[1,2,4]triazolo[1,5-a]pyrimidin-7(4H)-one]
≤ 10	O=c1cc(-c2ccc3nn[nH]c3c2)[nH]c2nc(-c3ccccc3Cl)nn12 [Example 22, 5-(1H-Benzo[d][1,2,3]triazol-6-yl)-2-(2-chlorophenyl)-[1,2,4]triazolo[1,5-a]pyrimidin-7(4H)-one]
≤ 10	CCn1ncc2cc(-c3cc(=O)n4nc(-c5ccc(Cl)cc5)nc4[nH]3)ccc21 [Example 42, 2-(4-Chlorophenyl)-5-(1-ethyl-1H-indazol-5-yl)-[1,2,4]triazolo[1,5-a]pyrimidin-7(4H)-one]
≤ 10	O=c1cc(-c2ccc3[nH]nnc3c2)[nH]c2nc(-c3cccc(Cl)c3)nn12 [Example 13, 5-(1H-Benzo[d][1,2,3]triazol-5-yl)-2-(3-chlorophenyl)-[1,2,4]triazolo[1,5-a]pyrimidin-7(4H)-one]
≤ 10	O=c1cc(-c2ccc3c(c2)OCO3)[nH]c2nc(Cc3ccccc3)nn12 [Example 1, 5-(Benzo[d][1,3]dioxol-5-yl)-2-benzyl-[1,2,4]triazolo[1,5-a]pyrimidin-7(4H)-one]
≤ 10	CCc1nc2[nH]c(-c3ccc4[nH]ncc4c3)cc(=O)n2n1 [Example 5, 2-Ethyl-5-(1H-indazol-5-yl)-[1,2,4]triazolo[1,5-a]pyrimidin-7(4H)-one]
≤ 10	Cc1nc2[nH]c(-c3ccc4c(c3)OCCO4)cc(=O)n2n1 [Example 16, 5-(2,3-Dihydrobenzo[b][1,4]dioxin-6-yl)-2-methyl-[1,2,4]triazolo[1,5-a]pyrimidin-7(4H)-one]
≤ 10	CCc1nc2[nH]c(-c3ccc4[nH]nnc4c3)cc(=O)n2n1 [Example 6, 5-(1H-Benzo[d][1,2,3]triazol-5-yl)-2-ethyl-[1,2,4]triazolo[1,5-a]pyrimidin-7(4H)-one]
≤ 10	O=c1cc(-c2ccc3c(c2)OCO3)[nH]c2nc(-c3ccccn3)nn12 [Example 29, 5-(Benzo[d][1,3]dioxol-5-yl)-2-(pyridin-2-yl)-[1,2,4]triazolo[1,5-a]pyrimidin-7(4H)-one]
≤ 10	O=c1cc(-c2ccc3[nH]ncc3c2)[nH]c2nc(-c3cccc(Cl)c3)nn12 [Example 12, 2-(3-Chlorophenyl)-5-(1H-indazol-5-yl)-[1,2,4]triazolo[1,5-a]pyrimidin-7(4H)-one]
≤ 10	CNC(=O)c1nc2[nH]c(-c3ccc4[nH]nnc4c3)cc(=O)n2n1 [Example 7, 5-(1H-Benzo[d][1,2,3]triazol-5-yl)-N-methyl-7-oxo-4,7-dihydro-[1,2,4]triazolo[1,5-a]pyrimidine-2-carboxamide]
≤ 10	O=c1cc(-c2ccc3c(c2)OCCO3)[nH]c2nc(Cc3ccccc3)nn12 [Example 18, 2-Benzyl-5-(2,3-dihydrobenzo[b][1,4]dioxin-6-yl)-[1,2,4]triazolo[1,5-a]pyrimidin-7(4H)-one]
≤ 10	CCn1ncc2cc(-c3cc(=O)n4nc(-c5ccccc5Cl)nc4[nH]3)ccc21 [Example 25, 2-(2-chlorophenyl)-5-(1-ethyl-1H-indazol-5-yl)-[1,2,4]triazolo[1,5-a]pyrimidin-7(4H)-one]
≤ 10	O=c1cc(-c2ccc3[nH]ncc3c2)[nH]c2nc(-c3ccc(F)cc3)nn12 [Example 20, 2-(4-Fluorophenyl)-5-(1H-indazol-5-yl)-[1,2,4]triazolo[1,5-a]pyrimidin-7(4H)-one]
≤ 10	Cc1nc2[nH]c(-c3ccc4[nH]ncc4c3)cc(=O)n2n1 [Example 4, 5-(1H-indazol-5-yl)-2-methyl-[1,2,4]triazolo[1,5-a]pyrimidin-7(4H)-one]
≤ 10	CCn1ncc2cc(-c3cc(=O)n4nc(-c5ccc(F)cc5)nc4[nH]3)ccc21 [Example 21, 5-(1-Ethyl-1H-indazol-5-yl)-2-(4-fluorophenyl)-[1,2,4]triazolo[1,5-a]pyrimidin-7(4H)-one]
≤ 10	O=c1cc(-c2ccc3[nH]nnc3c2)[nH]c2nc(Cc3ccccc3)nn12 [Example 45, 5-(1H-Benzo[d][1,2,3]triazol-5-yl)-2-benzyl-[1,2,4]triazolo[1,5-a]pyrimidin-7(4H)-one]
≤ 10	CC(C)c1nc2[nH]c(-c3ccc4[nH]nnc4c3)cc(=O)n2n1 [Example 14, 5-(1H-Benzo[d][1,2,3]triazol-5-yl)-2-isopropyl-[1,2,4]triazolo[1,5-a]pyrimidin-7(4H)-one]
≤ 10	COc1ccc(-c2cc(=O)n3nc(C)nc3[nH]2)cc1 [Example 27, 5-(4-Methoxyphenyl)-2-methyl-[1,2,4]triazolo[1,5-a]pyrimidin-7(4H)-one]
≤ 10	COc1ccc(-c2cc(=O)n3nc(Cc4ccccc4)nc3[nH]2)cc1 [Example 19, 2-Benzyl-5-(4-methoxyphenyl)-[1,2,4]triazolo[1,5-a]pyrimidin-7(4H)-one]
≤ 10	O=c1cc(-c2ccc3[nH]nnc3c2)[nH]c2nc(-c3ccccn3)nn12 [Example 2, 5-(1H-Benzo[d][1,2,3]triazol-5-yl)-2-(pyridin-2-yl)-[1,2,4]triazolo[1,5-a]pyrimidin-7(4H)-one]
≤ 10	O=c1cc(-c2ccc3[nH]nnc3c2)[nH]c2nc(-c3ccc(Cl)cc3)nn12 [Example 39, 5-(1H-Benzo[d][1,2,3]triazol-5-yl)-2-(4-chlorophenyl)-[1,2,4]triazolo[1,5-a]pyrimidin-7(4H)-one]
≤ 10	Cc1ccccc1-c1nc2[nH]c(-c3ccc4nn[nH]c4c3)cc(=O)n2n1 [Example 23, 5-(1H-benzo[d][1,2,3]triazol-6-yl)-2-o-tolyl-[1,2,4]triazolo[1,5-a]pyrimidin-7(4H)-one]
≤ 10	O=c1cc(-c2ccc3c(c2)OCCO3)[nH]c2nc(-c3ccccn3)nn12 [Example 28, 5-(2,3-Dihydrobenzo[b][1,4]dioxin-6-yl)-2-(pyridin-2-yl)-[1,2,4]triazolo[1,5-a]pyrimidin-7(4H)-one]
≤ 10	O=c1cc(-c2ccc3[nH]ncc3c2)[nH]c2nc(-c3ccccn3)nn12 [Example 3, 5-(1H-Indazol-5-yl)-2-(pyridin-2-yl)-[1,2,4]triazolo[1,5-a]pyrimidin-7(4H)-one]
≤ 10	O=c1cc(-c2ccc3[nH]nnc3c2)[nH]c2nc(-c3ccccc3)nn12 [Example 41, 5-(1H-Benzo[d][1,2,3]triazol-5-yl)-2-phenyl-[1,2,4]triazolo[1,5-a]pyrimidin-7(4H)-one]
